Where two headings read alike, the source gives them in different places.
Legend:
[1] = test system: BAD
Description: Adult male Sprague-Dawley rats were randomly assigned in treatment groups of 3 rats in each group to diets comprising 5% or 20% of glycine in their feed or a non-supplemented diet. On day 20 of the study the animals were euthanized and the adipose tissue obtained at necropsy. Total proteins were extracted from the adipose tissue.
Assay of the tissue extracts for the ability to phosphorylate BAD at serine position 136 was performed as follows: One mg of tissue extract was added to BAD agarose (Upstate, Waltham, Mass.). The reaction volume was adjusted to 1 ml using RIPA buffer (with anti-phosphatases and anti-proteases) (Tris-HCl [pH 7.4] 50 mM; NP-40 1%; Na deoxycholate 0.25%; NaCl 150 mM; EDTA 1 mM; PMSF 1 mM; Protease Arrest 100 ul; sodium orthovanadate 1 mM; sodium fluoride 1 mM) and incubated for 0.5 hr at 30° C. The agarose beads were collected by centrifugation (5 sec at 12,000× g). The supernatant was removed and the beads washed 3× with ice cold TBS. The BAD-agarose was resuspended in 40 μl of sample buffer, boiled for 5 min, and centrifuged (5 min at 12,000× g). Seven microliters of sample were electrophoresed on a 15% gel (Tris-Glycine). The protein was transferred by western blotting to a nitrocellulose membrane and blocked with 5% NFM in TTBS at 4° C. with shaking. The membrane was washed with 2% NFM in TTBS. Each lane was blotted with rabbit anti-phospho-BAD 136 antibody at (1:1000 in 2% NFM/TTBS) for 2 hrs at room temperature. The blots were washed three times for 5 min with TTBS. The blots were incubated with goat anti-Rabbit-HRP (1:5000 in 2% NFM/TTBS). The blots were washed 3× for 5 min with TTBS and 2× 5 min with TBS. Visualization of phosphorylated BAD was accomplished with a chemiluminesence substrate (Pierce Super-Signal Substrate™).

[2] = test system: abdominal fat; conditions: adult female Sprague-Dawley rats, glycine from 5% to 20% in diet vs non-supplemented, day 30
Source text: Adult female Sprague-Dawley rats were randomly assigned in treatment groups of 3 rats in each group to diets comprising 5, 10, 15, or 20% glycine in their feed or a non-supplemented diet. The rats in each treatment group were euthanized on day 30 of the study. Measurements of the abdominal fat content of each rat were obtained at necropsy. The analyst undertaking the measurement was blinded relative to the treatment group of the animal for which the observation was being recorded. Data was analyzed using a One-Way Analysis of Variance and subjected to post-hoc analysis using Dunnett's Multiple Comparison Test.

[3] = Source text: Rats were randomly divided, caged separately, and fed water ad libitum and diet TD 80406 diet (Harlan Teklad, Madison, Wis.). The TD 80406 diet has about 1-2% glycine present in the lactalbumin component and is considered a non-supplemented diet.
Adult (180 day old) male Fisher rats were randomly assigned in treatment groups of 10 rats in each group to diets comprising 5% or 20% glycine in their feed or a non-supplemented diet. Animal and food weight measurements were obtained on the indicated day of the study. The analyst undertaking the weight measurement was blinded relative to the diet of the animal for which the observation was being recorded. The bars represent±1 standard error of the weights of the rats in each group on the indicated observation day.
(§1) The identical experiment was performed with female adult (180 day old) Fisher rats.

[4] = test system: 3T3-L1 cells differentiated into adipocytes
[5] = rats on a high glycine diet
Source text: Blood samples were withdrawn from the tail vein of the rats under study and sent to Charles River Laboratories for Mutli-Analyte Profile testing. […] Am J Physiol Regul Integr Comp Physiol, 2004. […] Nahrung, 1980. 24(7):663-71; Sugiyama et al., Dietary sulfur-containing amino acids and glycine as determinant factors in plasma cholesterol regulation in growing rats. J Nutr Sci Vitaminol (Tokyo), 1985. […] Pol J Pharmacol, 2003. […] Nutrition Research, 1999. 19(12):1777-1789; Yoshida et al., Effects of addition of arginine, cystine, and glycine to the bovine milk-simulated amino acid mixture on the level of plasma and liver cholesterol in rats. J Nutr Sci Vitaminol (Tokyo), 1988. 34(6):567-76; Olson et al., Effect of amino acid diets upon serum lipids in man. Am J Clin Nutr, 1970. […] Vopr Med Khim, 1984. 30(2):78-80; Yagasaki et al., Effects of dietary methionine, cystine, and glycine on endogenous hypercholesterolemia in hepatoma-bearing rats. J Nutr Sci Vitaminol (Tokyo), 1986. […] J Biol Chem, 1990. 265(10):5910-6.

[6] = test system: abdominal fat
Description: Five rats from each treatment group were chosen at random and euthanized on day 30 of the study. Measurements of the abdominal fat content of each rat were obtained at necropsy (FIG. 2). The analyst undertaking the measurement was blinded relative to the treatment group of the animal for which the observation was being recorded. Data was analyzed using a One-Way Analysis of Variance and subjected to post-hoc analysis using Dunnett's Multiple Comparison Test.
as §1

[7] = Glycine added to the diet of laboratory animals (general statement)
[8] = adult male ZDF rats, 20% glycine diet vs non-supplemented, day 15 through day 36
Source text: (§2) Adult male Zucker diabetic fatty (ZDF) rats were randomly assigned in treatment groups of 3 rats in each group to diets comprising 20% glycine in their feed or a non-supplemented diet. ZDF rats are obese, hyperlipidemic, and insulin resistant. Weight measurements were obtained on the indicated day of the study. The analyst undertaking the weight measurement was blinded relative to the diet of the animal for which the observation was being recorded. The bars represent±1 standard error of the weights of the rats in each group on the indicated observation day. Data was analyzed using a One-Way Analysis of Variance and subjected to post-hoc analysis using Dunnett's Multiple Comparison Test. […] Measurements of the abdominal fat content of each rat were obtained at necropsy (FIG. 7).

[9] = test system: abdominal fat; conditions: ZDF rats, 20% glycine diet, at necropsy
Source text: as §2

[10] = for size and weight after switch to diet without glycine supplementation: 4 weeks glycine diet then 10% to 0%, within one month; for growth (length) / weight gain: glycine added to diet
Source text: Animals treated for 4 weeks with diet supplemented with glycine were switched to diet containing no glycine supplementation (FIGS. 18 and 19, 10% to 0%). […] Animals treated for 4 weeks with diet supplemented with glycine were switched to diet containing no glycine supplementation (FIGS. 20 and 21, 10% to 0%).

[11] = remark: listed apart in the source
Source text: Adult female Sprague-Dawley rats were randomly assigned in treatment groups of 3 rats in each group to diets comprising 5, 10, 15, or 20% glycine in their feed or a non-supplemented diet. Weight measurements were obtained on the indicated day of the study. The analyst undertaking the weight measurement was blinded relative to the diet of the animal for which the observation was being recorded. The bars represent±1 standard error of the weights of the rats in each group on the indicated observation day. […] Data was analyzed using a One-Way Analysis of Variance and subjected to post-hoc analysis using Dunnett's Multiple Comparison Test.

Remark: listed apart in the source
[12] = adult female Fisher rats compared with males

In the case of `NCC(=O)O` [glycine], the “ability of WAT protein extracts to phosphorylate BAD at serine position 136” value ([1]; WAT of treated animals, preliminary data) is reported as “did not have the ability to phosphorylate BAD”, the “phosphorylation state of BAD at tyrosine 136” value ([1]; liver tissue extracts) is reported as “no such decrease” and the “phosphorylation state of BAD at tyrosine 136” value ([1]; muscle extracts) is reported as “no such decrease”. For the same compound, the “loss of BAT tissue” value ([1]; preliminary experiments, glycine-fed rats) was “no significant loss”, the “phosphorylation of BAD at tyrosine 136” value ([1]; white adipose tissue (WAT), adult male rats, 5% or 20% glycine diet, day 20) was “dose dependent decrease” and the abdominal fat content [2] was “statistically significant less abdominal fat”. The “effect on weight loss and abdominal fat content” value [3, 12] was “somewhat more pronounced in the females than in the males”, the weight ([3]; adult male Fisher rats, 20% glycine diet vs 5% glycine or non-supplemented diet, day 14-30) was “statistically lighter” and the “weight after return to non-supplemented diet” value ([3]; adult male Fisher rats, 20% glycine group returned to non-supplemented diet on day 30, vs control after day 32) was “no statistical difference”. For the same compound, the “weight at end of Recovery Phase” value ([3]; treated adult female Fisher rats vs control) was “did not rebound to the level of the control animals”, the “apoptosis by TUNEL staining” value ([4]; glycine in media equivalent to 2× the normal circulating levels in the blood, preliminary experiments) was “positive TUNEL staining” and the TUNEL staining ([4]; high concentrations of glycine in the medium vs non-treated cells) was “increased staining for TUNEL”. For the same compound, the adiponectin levels [5] was “increase in a manner trending towards significance”, the leptin levels [5] was “Decrease in leptin levels, trending toward significance” and the “serum HDL level” value [5] was “statistically significant (p≤0.05) reduction”. The serum cholesterol level [5] was “statistically significant (p≤0.05) reduction”, the serum triglyceride level [5] was “statistically significant (p≤0.05) reduction” and the “reduction in abdominal fat” value [6, 12] was “greater than that observed for the male”. For the same compound, the abdominal fat content ([6]; adult male Fisher rats, 20% glycine diet vs 5% glycine or non-supplemented diet, day 30) was “statistically significant less abdominal fat”, the weight loss ([7]; dietary glycine at high levels (20% by weight)) was “significant weight loss” and the weight ([7]; glycine added to the diet of laboratory animals, rodent strains and dogs) was “dose-dependent loss in weight”. The side-effects ([7]; optimal and super-optimal doses, prolonged administration) was “no deleterious side-effects”, the weight [8] was “statistically significant decrease in weight” and the abdominal fat content [9] was “statistically significant (p≤0.05) less abdominal fat”. The “size and weight after switch to diet without glycine supplementation” value ([10]; immature female rats) was “same size and weight as the control animals”, the “growth (length)” value ([10]; immature female rats) was “dose-dependent reduction” and the weight gain ([10]; immature female rats) was “dose-dependent reduction”. For the same compound, the “size and weight after switch to diet without glycine supplementation” value ([10]; immature male rats) was “same size and weight as the control animals”, the “growth (length)” value ([10]; immature male rats) was “dose-dependent reduction” and the weight gain ([10]; immature male rats) was “dose-dependent reduction”. For the same compound, the weight ([11]; adult female Sprague-Dawley rats, 20% glycine diet vs non-supplemented, day 15 through day 36) was “statistically significant decrease in weight”, the weight loss ([11]; female Sprague-Dawley rats, high glycine in the diet) was “rapid significant weight loss” and the “gross findings at necropsy” value (15% glycine and 85% TD80406 diet for 6 weeks, rats 24 days old at start) was “No gross lesions or treatment related abnormalities other than weight”. The “blood chemistry and complete blood counts” value (15% glycine diet for 6 weeks vs control diet) was “No differences” and the “histopathological examination of tissues” value (one animal fed high glycine diet, brain, lung, liver, adrenal gland, kidneys, urinary bladder, heart, stomach, intestines) was “no microscopic changes from normal histology”.
